Like-named read-outs stand apart in the source and are kept apart here. Marks after values point to notes of the source that are not given here.
Assays:
GMK cells = assay: Cytotoxicity, microscopically observed in GMK cell cultures; type: cell-based, green monkey
HSV-1 (Miyama strain) [1] = assay: In vitro antiviral activity against HSV-1 (CPE inhibition, virus titer reduction) in GMK cells; type: cell-based; conditions: read-out: Antiviral Activity (ΔTCID50 (log10))
Description: The virus titer (TCID₅₀) was determined from CPE of virus infected culture. Antiviral effects of the test compounds were calculated from TCID₅₀ values of the test compounds treated and control cultures and represented by ΔTCID₅₀ (log₁₀).
In this regard, it is noted that prior to be added to the incubation systems, the compounds were dissolved in MEM or ethanol media at 10 mg/ml concentrations, and diluted with MEM media supplemented with 1% fetal bovine serum.

HSV-1 (Miyama strain) [2] = assay: In vivo anti-HSV-1 activities in intraperitoneally infected mice (Testing 5); set-up: species or system BALB/c mice; conditions: mice infected with 322 PFU HSV-1; for Survival Ratios after 21 days (%): control 0; for Mean Survival Days: control 6.9, *: P<0.05 (U Test)
HSV-1 (Miyama strain) [3] = assay: In vivo anti-HSV-1 activities in intraperitoneally infected mice (Testing 4); set-up: species or system BALB/c mice; conditions: mice infected with 322 PFU HSV-1; for Survival Ratios after 21 days (%): control 0; for Mean Survival Days: control 6.9
[4] = 5 mg/kg intraperitoneally for five days
[5] = 10 mg/kg intraperitoneally for five days
[6] = 20 mg/kg intraperitoneally for five days
[7] = 40 mg/kg intraperitoneally for five days
[8] = Human alphaherpesvirus 1, 10 μg/ml, HSV-1 (Miyama strain), GMK cells
[9] = Human alphaherpesvirus 1, 50 μg/ml, HSV-1 (Miyama strain), GMK cells

SMILES | cytotoxicities (GMK cells; 100 μg/ml) | log reduction at 10 µg/mL (HSV-1 (Miyama strain) [1]; Human alphaherpesvirus 1, GMK) | log reduction at 50 µg/mL (HSV-1 (Miyama strain) [1]; Human alphaherpesvirus 1, GMK) | log reduction at 100 µg/mL (HSV-1 (Miyama strain) [1]; Human alphaherpesvirus 1, GMK) | other results
Fc1ccc(N2CCNCC2)cc1 [Compound 6, 1-(p-fluorophenyl)piperazine hydrochlorate] | (+) | 0 | 0.5 | 1.33 | 
CC[C@]12CCCN3CCc4c(n(c5ccccc45)C(=NOCC(O)CN4CCN(c5ccccc5OC)CC4)C1)[C@@H]32 (stereo partly drawn) [Compound 10] |  |  |  |  | cytotoxicities (GMK cells; 50 μg/ml): (±); Survival Ratios after 21 days (%) (HSV-1 (Miyama strain) [2]; [4]): 50%; Mean Survival Days (HSV-1 (Miyama strain) [2]; [4]): 15.4* Days; Survival Ratios after 21 days (%) (HSV-1 (Miyama strain) [2]; [5]): 60%; Mean Survival Days (HSV-1 (Miyama strain) [2]; [5]): 15.4* Days; Survival Ratios after 21 days (%) (HSV-1 (Miyama strain) [2]; [6]): 50%; Mean Survival Days (HSV-1 (Miyama strain) [2]; [6]): 16.4* Days; Survival Ratios after 21 days (%) (HSV-1 (Miyama strain) [2]; [7]): 50%; Mean Survival Days (HSV-1 (Miyama strain) [2]; [7]): 15.5* Days; log reduction at 10 µg/mL (HSV-1 (Miyama strain) [1]; [8]): > 3; log reduction at 50 µg/mL (HSV-1 (Miyama strain) [1]; [9]): > 2.17
COc1ccccc1N1CCNCC1 [Compound 4, 1-(o-methoxyphenyl)piperazine hydrochlorate] | (+) | 0.56 | 1.56 | 2.5 | 
c1ccc(N2CCNCC2)cc1 [Compound 7, 1-phenylpiperazine] | (+) |  |  | 0.83 | 
Clc1cccc(N2CCNCC2)c1 [Compound 2, 1-(m-chlorophenyl)piperazine hydrochlorate] | (±±) | 0.46 | 1.23 |  | 
COc1ccccc1N1CCN(CCN)CC1 [Compound 9, 4-(aminoethyl)-1-(o-methoxyphenyl)piperazine] |  |  |  |  | log reduction at 10 µg/mL (HSV-1 (Miyama strain) [1]; [8]): 0.87; log reduction at 50 µg/mL (HSV-1 (Miyama strain) [1]; [9]): 1.8; log reduction at 100 µg/mL (HSV-1 (Miyama strain) [1]; Human alphaherpesvirus 1, 100 μg/ml, HSV-1 (Miyama strain), GMK cells): 2.53; Survival Ratios after 21 days (%) (HSV-1 (Miyama strain) [3]; [4]): 70%; Mean Survival Days (HSV-1 (Miyama strain) [3]; [4]): 17.5* Days; Survival Ratios after 21 days (%) (HSV-1 (Miyama strain) [3]; [6]): 50%; Mean Survival Days (HSV-1 (Miyama strain) [3]; [6]): 10.9* Days
Fc1ccccc1N1CCNCC1 [Compound 5, 1-(o-fluorophenyl)piperazine hydrochlorate] | (+) | 0.33 | 1.33 | 1.56 | 
c1ccc(N2CCCCC2)cc1 [Compound 8, 1-phenylpiperidine] | (+) |  |  | 0.5 | 
Clc1ccc(N2CCNCC2)cc1 [Compound 3, 1-(p-chlorophenyl)piperazine hydrochlorate] | (±±) | 0 | 1.5 |  | 
FC(F)(F)c1ccccc1N1CCNCC1 [Compound 11] | (±) | 2 | > 4 | < 4 | 
Clc1cccc(Cl)c1N1CCNCC1 [Compound 12] | (±) | 1 | 2.67 | > 3.3 | 
